The text below walks through data of US20140128357A1, “METHODS OF PRODUCING AND USING BRASSINOSTEROIDS TO PROMOTE GROWTH, REPAIR AND MAINTENANCE OF SKELETAL MUSCLE AND SKIN” (Rutgers University, priority 2010, published 2014).

SMILES strings stand for the structures. Where two headings read alike, the source gives them in different places.

For data set [1], the system named is L6 rat myotubes. The data set can be described thus: Protein degradation, release of acid-soluble [3H]-phenylalanine. The note with it: 10 μM; for Protein degradation (% decrease over control): 4 h. Type of data set: cell-based. As for the experimental part:
In some aspects, cell culture experiments were carried out. Rat L6 skeletal muscle cell line CRL-1458 was obtained from ATCC (Manassas, Va.). Myoblasts were routinely maintained in Dulbecco's modified Eagle's medium (DMEM) containing 10% FBS and 0.1% penicillin-streptomycin at 37° C. and 5% CO2. Cells were subcultured into 24-well plates for protein synthesis, degradation, and cell viability studies and into 6-well plates for Western blot analyses (Greiner Bio One, Monroe, N.C.). Once cells reached 90% confluence, differentiation was induced by lowering the serum concentration to 2%, and medium was changed every 2 days. […] NIH 3T3 murine embryonic fibroblast cell line (ATCC #CCL-92) was maintained in DMEM and 10% FBS at 37° C. in 5% CO2, and passaged every 3-4 days.
In various aspects, protein degradation is measured to determine the effect of brassinosteroid on a particular protein. All known methods for measuring protein degradation are included in the methods of the disclosure. The effect of brassinosteroids on protein degradation was investigated in fully differentiated myotubes as described by Fawcett et al. (Arch. Biochem. Biophys. 385:357-363, 2001) with slight modifications. Fully differentiated myotubes were incubated for 16 h to allow labeling of cellular proteins with 1.5 μCi/mL [^3H]-phenylalanine. […] The incubation was stopped by placing the cells on ice, and protein in the medium was precipitated with 5% trichloroacetic acid. Specific radioactivity of protein-free phenylalanine was quantified using liquid scintillation counter LS 6500 (Beckman Coulter, Fullerton, Calif.) and normalized to mg of total cell protein determined by BCA protein assay (Pierce Biotechnology, Rockford, Ill.).
The bioactivity of HB and its analogs (as shown in Table 3) were also evaluated by measuring decreases in protein degradation in the L6 rat skeletal muscle cells in vitro. Cells were labeled overnight with [^3H]-phenylalanine and subsequently treated for 4 h in triplicate with vehicle (0.1% ethanol) or test compound (10 μM), and protein degradation was assessed as release of acid-soluble [^3H]-phenylalanine into the media normalized by total protein (Table 3).

Data set [2] relates to 3T3 Swiss fibroblast monolayers. Description: Scratch wound closure in vitro. The data set is classed as cell-based, mouse. The note with it: for Scratch wound closure at 5 μM, % of control: 12 h (Table 6); for Wound Closure (% over control): 10 μM, 12 h (Table 4). As for the experimental part: 3T3 fibroblasts were seeded into 24-well dishes at a concentration of 3×10^5 cells/ml and cultured to nearly confluent cell monolayers. On the day of the experiment, a linear wound was generated in the monolayer with a sterile 100 μl plastic pipette tip and any cellular debris was removed by washing cells once with sterile PBS. Fresh DMEM medium containing vehicle (0.1% ethanol), positive control (0.5% FBS), or various concentrations of the fractions, sub-fractions or pure compounds was added to a set of 3 wells per dose and incubated for 12 h at 37° C. with 5% CO2. Cells were then visualized with 20 μl of 10% methylene blue in PBS for 5 min. Three representative images of the scratched areas from each well were photographed at 0 and 12 h to estimate the scratch wound closure. Images were analyzed using ImageJ program (NIH, Bethesda, Md.) and % wound closure was calculated relative to vehicle control and was reported as wound closure % over control (Table 4). 3T3 Swiss fibroblast were seeded into 24-well tissue culture at a concentration of 3×10^5 cells/ml and cultured to nearly confluent cell monolayers. Then, a linear wound was generated in the monolayer with a sterile 100 μl plastic pipette tip. Any cellular debris was removed by washing with PBS. DMEM medium with vehicle (0.1% ethanol), FBS (1%, positive control), or various concentrations of brassinosteroids were added to a set of 3 wells per dose and incubated for 12 h at 37° C. with 5% CO2. Cells were visualized in 10% methylene blue for 5 minutes. Three representative images from each well of the scratched areas under each condition were photographed to estimate the relative migration of cells at 0 and 12 h post-treatment. Data were analyzed using ImageJ software available online from the National Institutes of Health (rsbweb.nih.gov/ij/) by calculating the percentage of scratch closure at each dose point relative to control.

In data set [3] the test system is NIH 3T3 murine fibroblast cell line. The data set can be described thus: Cytotoxicity, MTT assay in 3T3 fibroblasts. Type of data set: cell-based, mouse. As for the experimental part:
FIG. 9. Cell survival curves as measured by MTT assay for brassinosteroids 1-9 against the murine fibroblast cell line NIH-3T3. Cells were incubated with various concentrations of brassinosteroids (0.3-30 μM) for 24 h at 37° C. The mean absorbance of the control cells represented 100% cell proliferation, and the mean absorbance of treated cells was related to control values to determine sensitivity. Error bars represent standard error (n=6) from mean cell proliferation as determined by repeated experiments.
In various aspects, cell viability is measured and the effects of doses of compound and test reagents are tested in cell lines. In some aspects, cell viability was measured by the MTT (3-(4,5-Dimethylthiazol-2-yl)-2,5-diphenyltetrazolium bromide) assay in triplicate (Mosmann et al., J. Immunol. Methods 65:55-63, 1983) and quantified spectrophotometrically at 550 nm using a microplate reader (Molecular Devices, Sunnyvale, Calif.).
3T3 fibroblasts were seeded in a 96-well flat bottom plate at a density of 1×10^4 cells/well. Cell viability was measured by an MTT (3-(4,5-Dimethylthiazol-2-yl)-2,5-diphenyltetrazolium bromide) assay in triplicate (0.3-30 μM of test substance for […]) essentially as described by Mosmann (J. Immunol. Methods 65, 55-63, 1983) and quantified spectrophotometrically at 550 nm using a microplate reader (Molecular Devices, Sunnyvale, Calif.). […] For cell proliferation studies, cells were treated in triplicate with 0.1-10 μM of test substance for 24 h and assayed using a BrdU (5-bromo-2′-deoxyuridine) kit from Amersham (Uppsala, Sweden).

Data set [4] has as its system L6 rat myotubes. The data set can be described thus: Protein synthesis, [3H]-phenylalanine incorporation in myotubes. Type of data set: cell-based. The note with it: 10 μM; for Protein synthesis (% increase over control): 4 h. As for the experimental part: In some aspects, cell culture experiments were carried out. Rat L6 skeletal muscle cell line CRL-1458 was obtained from ATCC (Manassas, Va.). Myoblasts were routinely maintained in Dulbecco's modified Eagle's medium (DMEM) containing 10% FBS and 0.1% penicillin-streptomycin at 37° C. and 5% CO2. Cells were subcultured into 24-well plates for protein synthesis, degradation, and cell viability studies and into 6-well plates for Western blot analyses (Greiner Bio One, Monroe, N.C.). Once cells reached 90% confluence, differentiation was induced by lowering the serum concentration to 2%, and medium was changed every 2 days. After 7-9 days of culture the myoblasts had fused into multinucleated myotubes (Mandel et al., Nature 251:618-620, 1974). NIH 3T3 murine embryonic fibroblast cell line (ATCC #CCL-92) was maintained in DMEM and 10% FBS at 37° C. in 5% CO2, and passaged every 3-4 days.
In various aspects, protein synthesis is measured to determine the effect of brassinosteroid on a particular protein. All known methods for measuring protein synthesis are included in the methods of the disclosure. In brassinosteroid dose response studies, fully differentiated myotubes were washed with serum-free DMEM and treated in triplicate with vehicle (0.1% ethanol), increasing concentrations of HB, or 6.5 nM of insulin-like growth factor-1 (IGF-1) as a positive control. Compounds were added to serum-free medium containing 0.5 μCi/mL [^3H]-phenylalanine and incubated for 4 h. For the HB time course study, fully differentiated myotubes were treated with 3 μM HB for 1-24 h using the same culture conditions. The incubation was stopped by placing cells on ice, discarding the medium, and washing the cells extensively with ice-cold PBS to remove the non-incorporated radiolabel. Proteins were precipitated with 5% trichloroacetic acid and dissolved in 0.5N NaOH (Montgomery et al., Methods Cell. Sci. 24:123-129, 2002). Specific radioactivity of protein-bound phenylalanine was quantified using liquid scintillation counter LS 6500 (Beckman Coulter, Fullerton, Calif.) and normalized to mg of total protein determined by BCA protein assay (Pierce Biotechnology, Rockford, Ill.).
The bioactivity of HB and its analogs was evaluated by measuring increases in protein synthesis in the L6 rat skeletal muscle cells in vitro. Cells were incubated for 4 h with [^3H]-phenylalanine and treated in triplicate with vehicle (0.1% ethanol) or test compound (10 μM), and protein synthesis was measured as incorporation of [^3H]-phenylalanine into protein normalized by total protein (Table 3). Under these conditions, both HB and (22S,23S)-homocastasterone increased protein synthesis by 37.2±5.9% (p<0.001) and 41.0±2.7% (p<0.001), respectively. This protein synthesis increase compared favorably to the biological activity of IGF-1 at 6.5 nM (42.5±4.5%, p<0.001) that served as a positive control in this assay. Removal of the 2α-hydroxyl group and fluorination at C-3 in the A ring (compound IDs 3-4 in Table 3) led to about a 50% decrease in bioactivity (24.6±5.3%, p<0.01 and 22.5±2.7%, p<0.01, respectively) compared to the positive control. However, there was still an increase in protein synthesis. […] Modifications in the side chain (compound IDs 7-9 in Table 3) abolished the activity.

The subject of data set [5] is orchiectomized (ORX) Wistar rats. Description: 10-d Hershberger assay in ORX rats, subcutaneous HB (Protocol 4). As to conditions: 0.4 mg/kg subcutaneous daily 10 d. Type of data set: in vivo, rat. As for the experimental part:
Protocol 4: Four-week-old sham-operated (sham, n=6) or orchiectomized (ORX, n=24) Wistar rats (Charles River Laboratories, MA) were subject to a 10-d Hershberger assay (surgically castrated peri-pubertal adult model) under the following experimental conditions: sham, ORX (vehicle), ORX (0.4 mg/kg HB subcutaneously), ORX (4 mg/kg HB subcutaneously), and ORX (0.4 mg/kg testosterone propionate subcutaneously, serving as a positive control for the assay). All procedures and measurements followed protocol 1. […]

For data set [6] the test system is unchanged. Type of data set: in vivo, rat. The note with it: ORX rats, 0.4 mg/kg subcutaneous 10 d, positive control of oral study. As for the experimental part:
Protocol 3: Four-week-old sham-operated (sham, n=6) or orchiectomized (ORX, n=24) Wistar rats (Charles River Laboratories, MA) were subject to a 10-d Hershberger assay (surgically castrated peri-pubertal adult model) under the following experimental conditions: sham, ORX (vehicle), ORX (20 mg/kg HB orally), ORX (60 mg/kg HB orally), and ORX (0.4 mg/kg testosterone propionate subcutaneously, serving as a positive control for the assay). All procedures and measurements followed protocol 1, except no body composition measurements were taken. Limb grip strength was measured for control animals and animals receiving 60 mg/kg HB using a digital force gauge (Wagner Instruments model FDV5) by Product Safety Laboratories (Dayton, N.J.). After the rats were allowed to grip the screen with paws, the animals were quickly pulled until the paws released from the screen, and the required release force was recorded. Three trials on each animal were performed in triplicate, and significance was determined using Student's t test (p<0.05). In addition to the gastrocnemius muscle, androgen-sensitive tissues (ventral prostate, seminal vesicles, bulbocavernosus/levator ani muscle complex, glans penis, and Cowper's gland) were dissected out and weighed.
The muscle samples for histochemical analysis were taken from the middle section of the mixed-fiber gastrocnemius muscle of the castrated animals treated according to protocol 4 (described herein above) to allow for the observation of differences in fiber type distribution and cross-section area associated with ORX and HB treatments. Serial transverse cryosections (10 μm) were prepared from each muscle and were analyzed for myofibrillar adenosine triphosphatase (mATPase) histochemistry after alkaline (pH=9.5) preincubation. Fiber cross-section area and enzyme activity levels were determined from digitized images of the muscle cross-sections that were stored as gray-level pictures using ImageJ software (National Institutes of Health, Bethesda, Md.). […]

Regarding `CC[C@@H](C(C)C)[C@H](O)[C@@H](O)[C@@H](C)[C@H]1CC[C@H]2[C@@H]3CNC(=O)[C@H]4C[C@H](O)[C@H](O)C[C@]4(C)[C@H]3CC[C@]12C` [Compound 6, (22S,23S,24S)-2α,3α-22,23-tetrahydroxy-24-ethyl-B-homo-7-aza-5α-cholestan-6-one], in data set [1], the “effect of structural modification on protein degradation activity, in words” value is listed as “completely abolished its effect on protein degradation” and the “Protein degradation (% decrease over control)” value is recorded as −0.6 ± 2.9%. Also, in data set [2], the “Scratch wound closure at 5 μM, % of control” value came to 30.5 ± 4.2 % and the “Wound Closure (% over control)” value was 27.3 ± 3.6 %. In data set [2] (0.1-10 μM, 12 h (FIG. 17)), the “concentration of highest scratch wound closure activity” value stood at 3 µM. This compound yielded an IC50 in data set [3] of over 30 µM. In addition, in data set [4], the “effect of structural modification on activation of protein synthesis, in words” value is given as “reduced biological activity by half” and the “Protein synthesis (% increase over control)” value came out at 20.9 ± 2.4 %.

For the compound `CCC(=O)O[C@H]1CC[C@H]2[C@@H]3CCC4=CC(=O)CC[C@]4(C)[C@H]3CC[C@]12C` [testosterone propionate, reference compound], in data set [5], the Bulbocavernosus/levator ani weight turned out to be 293.8 ± 19.0 mg, the “Cowper's gland weight” value is given as 34.3 ± 1.9 mg, the Glans penis weight worked out at 72.3 ± 4.5 mg and the Seminal vesicles weight came out at 228.7 ± 35.3 mg. In data set [5], this compound came in with a Ventral prostate weight of 92.8 ± 6.3 mg. In addition, in data set [6], the Bulbocavernosus/levator ani weight is 382.0 ± 22.0 mg, the “Cowper's gland weight” value worked out at 34.5 ± 4.7 mg, the Glans penis weight came to 93.8 ± 4.2 mg and the Seminal vesicles weight is 262.5 ± 12.5 mg. The Ventral prostate weight in data set [6] came to 110.50 ± 9.5 mg.

In the case of `CC[C@@H](C(C)C)[C@H](O)[C@@H](O)[C@@H](C)[C@H]1CC[C@H]2[C@@H]3COC(=O)[C@H]4C[C@H](F)CC[C@]4(C)[C@H]3CC[C@]12C` [Compound 3, (22S,23S,24S)-3α-fluoro-22,23-dihydroxy-24-ethyl-B-homo-7-oxa-5α-cholestan-6-one], in data set [1], the “Protein degradation (% decrease over control)” value is −20.8 ± 0.5 %. In addition, in data set [2], the “Scratch wound closure at 5 μM, % of control” value is listed as 15.3 ± 2.6% and the “Wound Closure (% over control)” value was found to be 15.3 ± 2.6%. For the same compound, in data set [3], the IC50 was about 30 µM and the “cytotoxicity compared to the original brassinosteroids” value is “increased cytotoxicity”. The “Protein synthesis (% increase over control)” value in data set [4] was found to be 24.6±5.3%.

Usually IC50 stands for the concentration that gives 50% inhibition. A lower IC50 goes with inhibition by little substance.
